US20140155406A1, “4-IMIDAZOPYRIDAZIN-1-YL-BENZAMIDES AND 4-IMIDAZOTRIAZIN-1-YL-BENZAMIDES BTK INHIBITORS” (priority 2011, published 2014)

How the values were obtained:
Btk enzyme (His-Btk) = target: T1, Btk enzyme (His-Btk) (Homo sapiens, UniProt Q06187); experiment: Btk enzyme activity, IMAP fluorescence polarization assay; assay type: biochemical; settings: 60 min pre-incubation, 5 μM ATP (Km); bin bounds given in nM
T1 construct: His; purchased Millipore 14-552
Excerpt: Inhibition of kinase activity can be measured using the Immobilized Metal Assay for Phosphochemicals (IMAP) assay. IMAP is a homogeneous fluorescence polarization (FP) assay based on affinity capture of phosphorylated peptide substrates. IMAP uses fluorescein-labeled peptide substrates that, upon phosphorylation by a protein kinase, bind to so-called IMAP nanoparticles, which are derivatized with trivalent metal complexes. Binding causes a change in the rate of the molecular motion of the peptide, and results in an increase in the FP value observed for the fluorescein label attached to the substrate peptide (Gaudet et al. A homogeneous fluorescence polarization assay adaptable for a range of protein serine/threonine and tyrosine kinases. J. Biomol. Screen (2003) 8, 164-175).
Btk enzyme activity is measured using the IMAP (immobilized metal ion affinity-based fluorescence polarization) assay as outlined below.
Btk enzyme (His-Btk (Millipore catalog#14-552), is diluted to 0.4 U/mL in KR buffer (10 mM Tris-HCl, 10 mM MgCl2, 0.01% Tween-20, 0.05% NaN3, 1 mM DTT, 2 mM MnCl2, pH 7.2).
Serial dilution log 10 from 2 mM to 63.2 nM of test compounds are made in 100% DMSO. The dilutions in DMSO are then diluted 50-fold in KR-buffer. Final compound concentration range in the assay from 10 μM to 0.316 nM.
5 μL/well of test compound in KR buffer (final DMSO concentration in the assay is 1%) is mixed with 5 μl/well of 0.4 U/mL Btk enzyme (final concentration in the assay is 0.1 U/mL). Test compounds and Btk enzyme are pre-incubated 60 minutes at room temperature, before adding 5 μL/well of 200 nM Fluorescin labeled substrate peptide (Blk/Lyntide substrate, e.g. #R7188/#R7233, Molecular Devices) in KR-buffer. Final peptide substrate concentration in assay is 50 nM. The kinase assay is started by adding 5 μL/well of 20 μM ATP in KR-buffer (final ATP concentration is 5 μM ATP, Km ATP in Btk IMAP assay). Following incubation for 2 h at room temperature the enzyme reaction is stopped by adding 40 μL/well IMAP Progressive Binding Solution (according to suppliers (Molecular Devices) protocol using 75% 1× buffer A and 25% 1× buffer B with 1:600 Progressive Binding Solution). After 60 min incubation at room temperature in the dark the FP signal is read. Fluorescence at 535 nm is measured using parallel and perpendicular filters to determine differences in rotation due to binding of the phosphorylated substrate peptide to the beads. Values are calculated as percentage of the difference in readout (ΔmPi) of the controls with and without ATP. EC50 values are determined by curve fitting of the experimental results using Activity Base.

Src enzyme = target: T2, Src enzyme (Homo sapiens, UniProt P12931); experiment: Src enzyme activity, IMAP fluorescence polarization assay; assay type: biochemical; settings: 60 min pre-incubation, 4 μM ATP (Km)
T2 construct: purchased Millipore 14-326
How it was run: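 Src at 0.2 U/mL final, pre-incubated 60 min at RT with compound (10 μM to 0.316 nM final, 1% DMSO) in pH 7.2 Tris/Mg/Mn buffer. Reaction with 100 nM fluorescein-p34cdc2 peptide and 4 μM ATP (Km) ran 2 h at RT, then IMAP binding and FP at 535 nm. EC50 from curve fit of % control.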

T1 sequence (Q06187 whole entry): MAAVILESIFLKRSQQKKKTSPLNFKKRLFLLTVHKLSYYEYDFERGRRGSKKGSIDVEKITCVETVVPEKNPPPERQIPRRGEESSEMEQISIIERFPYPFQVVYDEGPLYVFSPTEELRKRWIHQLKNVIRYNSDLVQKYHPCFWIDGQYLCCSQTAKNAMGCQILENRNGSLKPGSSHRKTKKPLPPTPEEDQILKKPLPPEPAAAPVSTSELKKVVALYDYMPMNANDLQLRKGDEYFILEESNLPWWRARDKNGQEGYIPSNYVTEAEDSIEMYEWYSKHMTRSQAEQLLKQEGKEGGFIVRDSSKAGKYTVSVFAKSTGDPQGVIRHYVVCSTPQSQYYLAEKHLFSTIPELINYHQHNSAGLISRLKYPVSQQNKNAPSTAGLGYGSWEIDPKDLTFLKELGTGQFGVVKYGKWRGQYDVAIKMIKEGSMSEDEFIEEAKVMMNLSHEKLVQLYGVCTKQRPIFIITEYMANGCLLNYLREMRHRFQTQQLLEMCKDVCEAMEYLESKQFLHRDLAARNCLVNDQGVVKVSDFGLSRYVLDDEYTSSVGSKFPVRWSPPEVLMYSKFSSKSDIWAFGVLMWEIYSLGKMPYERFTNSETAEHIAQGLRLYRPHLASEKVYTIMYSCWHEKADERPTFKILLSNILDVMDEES
T2 sequence (P12931 whole entry): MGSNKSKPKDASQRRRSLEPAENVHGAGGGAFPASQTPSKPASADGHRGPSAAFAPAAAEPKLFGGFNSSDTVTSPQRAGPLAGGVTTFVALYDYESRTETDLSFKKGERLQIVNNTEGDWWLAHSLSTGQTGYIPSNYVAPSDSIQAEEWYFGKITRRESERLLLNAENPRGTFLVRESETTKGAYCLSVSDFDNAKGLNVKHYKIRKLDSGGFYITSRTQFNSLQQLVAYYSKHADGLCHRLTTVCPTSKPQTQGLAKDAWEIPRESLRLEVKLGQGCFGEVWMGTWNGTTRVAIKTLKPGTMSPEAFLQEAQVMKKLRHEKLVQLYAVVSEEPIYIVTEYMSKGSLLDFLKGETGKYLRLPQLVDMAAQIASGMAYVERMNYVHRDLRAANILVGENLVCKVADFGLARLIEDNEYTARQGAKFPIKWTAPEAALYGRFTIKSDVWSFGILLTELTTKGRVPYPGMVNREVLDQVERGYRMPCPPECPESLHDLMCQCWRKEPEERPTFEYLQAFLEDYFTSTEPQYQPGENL

| SMILES | EC50 (Btk enzyme (His-Btk)) [nM] | EC50 (Src enzyme) [µM] |
| --- | --- | --- |
| C=CC(=O)N1CCCC[C@H]1c1nc(-c2ccc(C(=O)Nc3cc(C(F)(F)F)ccn3)cc2)c2c(C)nccn12 [Example 27, (S)-4-(3-(1-acryloylpiperidin-2-yl)-8-methylimidazo[1,5-a]pyrazin-1-yl)-N-(4-(trifluoromethyl)pyridin-2-yl)benzamide] | < 10 | ≥ 1 |
| CCCc1ccnc(NC(=O)c2ccc(-c3nc([C@H](C)N(C)C(=O)/C=C/CN(C)C)n4ccnc(C)c34)cc2)c1 [Example 18, (S,E)-4-(3-(1-(4-(dimethylamino)-N-methylbut-2-enamido)ethyl)-8-methylimidazo[1,5-a]pyrazin-1-yl)-N-(4-propylpyridin-2-yl)benzamide] | < 10 | ≥ 1 |
| CC#CC(=O)N(C)[C@@H](C)c1nc(-c2ccc(C(=O)Nc3cc(CCC)ccn3)cc2)c2c(C)nccn12 [Example 24, (S)-4-(8-methyl-3-(1-(N-methylbut-2-ynamido)ethyl)imidazo[1,5-a]pyrazin-1-yl)-N-(4-propylpyridin-2-yl)benzamide] | < 10 | ≥ 1 |
| C=CC(=O)N[C@@H](C)c1nc(-c2ccc(C(=O)Nc3cc(C(F)(F)F)ccn3)cc2)c2c(C)nccn12 [Example 8, (S)-4-(3-(1-Acrylamidoethyl)-8-methylimidazo[1,5-a]pyrazin-1-yl)-N-(4-(trifluoromethyl)pyridin-2-yl)benzamide] | < 10 | ≥ 1 |
| CCCc1ccnc(NC(=O)c2ccc(-c3nc([C@@H]4CCCCN4C(=O)/C=C/CN(C)C)n4ccnc(C)c34)cc2)c1 [Example 3, (S,E)-4-(3-(1-(4-(Dimethylamino)but-2-enoyl)piperidin-2-yl)-8-methylimidazo[1,5-a]pyrazin-1-yl)-N-(4-propylpyridin-2-yl)benzamide] | < 10 | ≥ 1 |
